Assay results published in article PMC7918738, “Microtubule Destabilizing Sulfonamides as an Alternative to Taxane-Based Chemotherapy” (International Journal of Molecular Sciences, 2021).
Values joined by “and” are separate entries in the source; they are usually repeats but may differ in a detail not shown here. Identical values can stand only once.

Legend:
MCF7 cells = assay: Annexin V-FITC/PI cell death quantification in MCF7; assay type: cell-based, human; settings: 38 600 nM, 42 50 nM, 45 400 nM; for Annexin V-FITC/PI 72 h EA (early apoptosis) / Annexin V-FITC/PI 72 h LA (late apoptosis) / Annexin V-FITC/PI 72 h Live / Annexin V-FITC/PI 72 h Necrosis / Annexin V-FITC/PI 6 Days EA (early apoptosis) / Annexin V-FITC/PI 6 Days LA (late apoptosis) / Annexin V-FITC/PI 6 Days Live / Annexin V-FITC/PI 6 Days Necrosis: CA-4 50 nM; for Annexin V-FITC/PI 6 Days EA (early apoptosis) / Annexin V-FITC/PI 6 Days LA (late apoptosis) / Annexin V-FITC/PI 6 Days Live / Annexin V-FITC/PI 6 Days Necrosis: MCF7, 6 days
Procedure: To determine whether the cytotoxic/antiproliferative effect of the MDS was due to apoptosis induction, cells were treated with variable concentrations of the drug for 72 h or 6 days, stained with Annexin V-FITC (AnV) and propidium iodide (PI), and analyzed by flow cytometry. Double negative cells (AnV^−/PI^−) were classified as live cells (L), cells positive for AnV and negative for PI (AnV^+/PI^−) were considered in Early Apoptosis (EA), cells negative for AnV and positive for PI (AnV^−/PI^+) were considered necrotic (N), and double-positive cells (AnV^+/PI^+) as Late Apoptosis (LA). In all cases, the compounds were used at the same concentrations previously used in cell cycle studies (Table 5).
MCF7, SKOV-3, and HeLa apoptotic cells were quantified using an Annexin V-FITC/PI apoptosis detection kit (Immunostep, Salamanca, Spain) according to the manufacturer’s guidelines. 1.5 mL/well of cells in the exponential growth phase at 2·10^4 cells/mL were seeded onto 12-well plates and left to attach overnight. After 24 h incubation, cells were treated with selected compounds. After 72 h (MCF7, SKOV-3, and HeLa) and 6 days (MCF7) post-treatment, attached and floating cells of treated and untreated wells were collected, centrifuged, resuspended in Annexin V binding buffer, and stained with Annexin V-FITC/PI. Cells were then incubated in darkness at room temperature for 15 min and a total of 30,000 cells were acquired and analyzed using the BD Accuri™ C6 Plus Flow Cytometer and Software (version 1.0.264.21, BD Biosciences, San José, CA, USA), respectively. Compounds were dissolved in DMSO and the final solvent concentration never exceeded 0.5% (v/v). Control wells included cells with 0.5% (v/v) DMSO.

HeLa cells = assay: Cell cycle analysis in HeLa (PI staining, flow cytometry); assay type: cell-based, human; settings: 24 h; 38 600 nM, 42 50 nM, 45 400 nM
Procedure: The effect of the lead MDS on the cell cycle of MCF7, SKOV3, and HeLa cells was analyzed in time-course experiments at 24, 48, and 72 h post-treatment by DNA staining and flow cytometry quantification. The working concentration for each compound (600 nM for 38, 50 nM for 42, and 400 nM for 45) was established at the complete inhibition of cell proliferation in view of individually assays run in parallel for each cell line.
Cell cycle analysis was performed in MCF7, SKOV-3, and HeLa cells by quantifying the DNA content by flow cytometry. Cells in the exponential growth phase at 2·10^4 cells/mL were seeded in 24-well plates (1 mL/well). After 24 h incubation, cells were treated with different concentrations of the selected compounds and the effect of treated and untreated cells was measured 24, 48, and 72 h post-treatment. Live and dead cells were collected and fixed in ice-cold ethanol/PBS (7:3) and stored at 4 °C for later use. Cells were rehydrated with PBS, treated with 100 µg/mL RNase A (Sigma-Aldrich Co., St. Louis, MO, USA) and stained overnight in darkness at room temperature with 50 µg/mL PI (Sigma-Aldrich Co.). Cell cycle profiles were then analyzed by flow cytometry using BD Accuri™ C6 Plus Flow Cytometer (BD Biosciences, San José, CA, USA). Data were analyzed with BD Accuri™ C6 Software (version 1.0.264.21, BD Biosciences, San José, CA, USA) and compared to control cells. Compounds were dissolved in DMSO and the final solvent concentration never exceeded 0.5% (v/v). Control wells included cells with 0.5% (v/v) DMSO.

SMILES	Phosphatidylserine exposure (Annexin V-positive MCF7 cells) (MCF7 cells; MCF7, 72 h)	Annexin V-FITC/PI 72 h EA (early apoptosis) (MCF7 cells; MCF7, 72 h)	Annexin V-FITC/PI 72 h LA (late apoptosis) (MCF7 cells; MCF7, 72 h)	Annexin V-FITC/PI 72 h Live (MCF7 cells; MCF7, 72 h)	Annexin V-FITC/PI 72 h Necrosis (MCF7 cells; MCF7, 72 h)	Annexin V-FITC/PI 6 Days EA (early apoptosis) (MCF7 cells)	Annexin V-FITC/PI 6 Days LA (late apoptosis) (MCF7 cells)	Annexin V-FITC/PI 6 Days Live (MCF7 cells)	Annexin V-FITC/PI 6 Days Necrosis (MCF7 cells)	HeLa cells at G2/M phase (HeLa cells)	Annexin V-FITC/PI 72 h EA (early apoptosis) (MCF7 cells; MCF7, 72 h, listed as CA-4)	Annexin V-FITC/PI 72 h Live (MCF7 cells; MCF7, 72 h, listed as CA-4)	Annexin V-FITC/PI 6 Days EA (early apoptosis) (MCF7 cells; listed as CA-4)	Annexin V-FITC/PI 6 Days Live (MCF7 cells; listed as CA-4)
COc1ccc(S(=O)(=O)N(C)c2cc(OC)c(OC)c(OC)c2)cc1N [Compound 42]	11%	9% and 8.5%	2.3%	88% and 87.7%	1.4%	19% and 18.9%	1.7%	79% and 79.1%	0.3%	44%				
CNc1ccc(S(=O)(=O)N(C)c2cc(OC)c(OC)c(OC)c2)cc1 [Compound 38]		29%	5.4%	60% and 60.5%	5.1%	45.0%	2.7%	52.0%	0.3%	80%				
COc1ccc(/C=C\c2cc(OC)c(OC)c(OC)c2)cc1O [Combretastatin A-4, reference compound]			3.3%		6.7%		2.7%		0.4%		32% and 31.7%	58% and 58.3%	52.4%	44.5%
COc1ccc(S(=O)(=O)N(Cc2ccccc2)c2cc(OC)c(OC)c(OC)c2)cc1N [Compound 45]		20% and 20.1%	7.5%	71% and 70.5%	1.9%	39.3%	3.8%	56.7%	0.3%	80%				
